Source: ChEMBL document CHEMBL4706640, “Structure-Based Drug Design and Synthesis of PI3Kα-Selective Inhibitor (PF-06843195)” (J Med Chem, 2021)
Converted amounts (≈) assume the structure as drawn.

Legend:
Rat1 [1] = experiment: Selectivity index, ratio of IC50 for recombinant human N-terminal Myr signal and C-terminal Flag-tagged PI3K p110delta to IC50 for recombinant human N-terminal Myr signal and C-terminal Flag-tagged PI3K p110alpha expressed in rat Rat1 cells; type: cell-based
Rat1 [2] = experiment: Selectivity index, ratio of IC50 for recombinant human N-terminal Myr signal and C-terminal Flag-tagged PI3K p110beta to IC50 for recombinant human N-terminal Myr signal and C-terminal Flag-tagged PI3K p110alpha expressed in rat Rat1 cells; type: cell-based
[3] = molecular target: T1, Phosphatidylinositol 4,5-bisphosphate 3-kinase catalytic subunit delta isoform (Homo sapiens, UniProt O00329); experiment: Inhibition of recombinant human N-terminal Myr signal and C-terminal Flag-tagged PI3K p110delta expressed in rat Rat1 cells; type: cell-based
T1 sequence (O00329 whole entry): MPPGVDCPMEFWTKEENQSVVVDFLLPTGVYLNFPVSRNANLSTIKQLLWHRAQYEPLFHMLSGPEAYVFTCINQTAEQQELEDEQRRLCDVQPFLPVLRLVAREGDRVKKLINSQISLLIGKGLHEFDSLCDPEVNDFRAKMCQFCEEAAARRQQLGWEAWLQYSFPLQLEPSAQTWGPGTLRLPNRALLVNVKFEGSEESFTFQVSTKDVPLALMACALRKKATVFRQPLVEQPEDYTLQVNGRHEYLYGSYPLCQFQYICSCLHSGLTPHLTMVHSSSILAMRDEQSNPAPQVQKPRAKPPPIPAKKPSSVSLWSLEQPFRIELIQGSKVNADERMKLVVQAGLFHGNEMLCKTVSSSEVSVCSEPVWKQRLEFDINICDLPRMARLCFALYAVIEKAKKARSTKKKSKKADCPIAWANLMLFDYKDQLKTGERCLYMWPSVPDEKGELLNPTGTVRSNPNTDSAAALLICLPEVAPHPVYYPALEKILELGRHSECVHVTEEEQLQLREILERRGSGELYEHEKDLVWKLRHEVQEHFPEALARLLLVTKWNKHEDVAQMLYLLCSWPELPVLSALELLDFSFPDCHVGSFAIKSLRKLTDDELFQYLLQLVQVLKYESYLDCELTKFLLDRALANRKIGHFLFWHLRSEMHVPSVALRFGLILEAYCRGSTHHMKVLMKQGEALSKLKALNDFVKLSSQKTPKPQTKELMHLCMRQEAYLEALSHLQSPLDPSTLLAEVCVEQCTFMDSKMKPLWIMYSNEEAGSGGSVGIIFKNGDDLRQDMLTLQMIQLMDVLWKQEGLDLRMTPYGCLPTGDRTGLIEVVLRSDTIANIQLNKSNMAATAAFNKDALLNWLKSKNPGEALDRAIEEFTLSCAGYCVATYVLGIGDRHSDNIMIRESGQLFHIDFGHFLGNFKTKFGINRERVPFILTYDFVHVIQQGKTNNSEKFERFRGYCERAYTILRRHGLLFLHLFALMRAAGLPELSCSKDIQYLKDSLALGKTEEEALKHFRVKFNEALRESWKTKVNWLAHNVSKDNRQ

[4] = molecular target: Phosphatidylinositol 4,5-bisphosphate 3-kinase catalytic subunit beta isoform (Homo sapiens, UniProt P42338); experiment: Inhibition of recombinant human N-terminal Myr signal and C-terminal Flag-tagged PI3K p110beta expressed in rat Rat1 cells; type: cell-based
Phosphatidylinositol 4,5-bisphosphate 3-kinase catalytic subunit beta isoform, sequence (P42338 whole entry, canonical isoform): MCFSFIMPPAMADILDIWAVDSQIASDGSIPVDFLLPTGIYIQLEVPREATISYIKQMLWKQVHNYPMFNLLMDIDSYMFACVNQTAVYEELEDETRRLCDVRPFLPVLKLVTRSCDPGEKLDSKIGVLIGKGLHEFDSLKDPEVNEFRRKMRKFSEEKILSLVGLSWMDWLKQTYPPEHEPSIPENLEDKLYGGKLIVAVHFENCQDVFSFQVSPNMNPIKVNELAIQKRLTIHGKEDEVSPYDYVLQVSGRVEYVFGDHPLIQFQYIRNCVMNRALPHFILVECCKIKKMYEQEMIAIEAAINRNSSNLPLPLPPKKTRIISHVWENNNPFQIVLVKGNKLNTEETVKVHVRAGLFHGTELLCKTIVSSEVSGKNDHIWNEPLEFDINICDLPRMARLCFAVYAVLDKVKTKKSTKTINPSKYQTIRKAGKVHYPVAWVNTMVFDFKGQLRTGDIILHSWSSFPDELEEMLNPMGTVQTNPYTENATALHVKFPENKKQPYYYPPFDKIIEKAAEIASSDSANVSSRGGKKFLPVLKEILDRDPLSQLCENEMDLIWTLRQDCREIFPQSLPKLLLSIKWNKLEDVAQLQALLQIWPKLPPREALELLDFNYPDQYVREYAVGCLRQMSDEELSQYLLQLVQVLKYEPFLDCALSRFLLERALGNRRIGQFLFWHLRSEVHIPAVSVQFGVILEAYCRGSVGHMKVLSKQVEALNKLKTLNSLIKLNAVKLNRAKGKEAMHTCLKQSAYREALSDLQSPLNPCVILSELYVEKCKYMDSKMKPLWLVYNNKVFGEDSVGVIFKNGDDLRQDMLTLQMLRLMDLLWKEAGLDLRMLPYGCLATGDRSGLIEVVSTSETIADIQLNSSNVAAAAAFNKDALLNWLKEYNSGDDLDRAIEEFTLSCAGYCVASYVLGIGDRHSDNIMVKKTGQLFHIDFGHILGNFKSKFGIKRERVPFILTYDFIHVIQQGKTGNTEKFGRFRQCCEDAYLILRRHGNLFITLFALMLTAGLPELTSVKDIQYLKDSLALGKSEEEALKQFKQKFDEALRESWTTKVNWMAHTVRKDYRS

[5] = molecular target: Phosphatidylinositol 4,5-bisphosphate 3-kinase catalytic subunit alpha isoform (Homo sapiens, UniProt P42336); experiment: Inhibition of recombinant human N-terminal Myr signal and C-terminal Flag-tagged PI3K p110alpha expressed in rat Rat1 cells; type: cell-based
Phosphatidylinositol 4,5-bisphosphate 3-kinase catalytic subunit alpha isoform, sequence (P42336 whole entry, canonical isoform): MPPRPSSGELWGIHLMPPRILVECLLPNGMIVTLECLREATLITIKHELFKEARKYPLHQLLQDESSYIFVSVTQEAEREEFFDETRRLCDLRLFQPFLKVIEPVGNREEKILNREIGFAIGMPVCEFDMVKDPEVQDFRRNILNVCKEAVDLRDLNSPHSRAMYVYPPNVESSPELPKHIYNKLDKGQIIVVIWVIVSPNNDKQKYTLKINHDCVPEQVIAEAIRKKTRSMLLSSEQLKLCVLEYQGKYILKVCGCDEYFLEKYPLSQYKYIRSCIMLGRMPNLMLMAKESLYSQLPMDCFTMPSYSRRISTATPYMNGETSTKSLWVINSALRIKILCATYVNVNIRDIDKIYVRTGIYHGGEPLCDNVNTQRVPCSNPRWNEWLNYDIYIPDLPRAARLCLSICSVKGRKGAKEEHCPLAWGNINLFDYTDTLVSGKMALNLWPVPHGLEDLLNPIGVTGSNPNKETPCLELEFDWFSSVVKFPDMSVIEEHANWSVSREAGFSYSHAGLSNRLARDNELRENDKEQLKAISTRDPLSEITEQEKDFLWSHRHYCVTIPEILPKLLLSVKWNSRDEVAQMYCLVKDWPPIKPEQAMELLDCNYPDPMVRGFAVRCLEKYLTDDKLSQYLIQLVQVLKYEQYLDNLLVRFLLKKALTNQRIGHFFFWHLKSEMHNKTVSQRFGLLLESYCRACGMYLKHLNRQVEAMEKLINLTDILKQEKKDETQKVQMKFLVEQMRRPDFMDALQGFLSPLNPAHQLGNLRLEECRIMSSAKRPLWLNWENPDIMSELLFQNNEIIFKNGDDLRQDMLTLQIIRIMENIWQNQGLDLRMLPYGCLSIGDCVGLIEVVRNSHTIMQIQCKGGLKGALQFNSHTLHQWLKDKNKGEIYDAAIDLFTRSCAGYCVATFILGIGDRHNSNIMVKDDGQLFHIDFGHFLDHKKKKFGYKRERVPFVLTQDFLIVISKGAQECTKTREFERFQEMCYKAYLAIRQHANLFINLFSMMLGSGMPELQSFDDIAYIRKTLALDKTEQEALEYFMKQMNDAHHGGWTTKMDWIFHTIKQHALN

[6] = molecular target: PI3-kinase p110-alpha/p85-alpha (Homo sapiens, UniProt P42336); experiment: Inhibition of recombinant human full-length PI3K p110alpha/p85alpha (322 to 600) expressed in baculovirus infected Sf21 cells using phosphatidylinositol 4,5-bisphosphate as substrate preincubated for 15 mins followed by addition of ATP and measured after 30 mins by fluorescence polarisation assay
PI3-kinase p110-alpha/p85-alpha, sequence (P27986 whole entry): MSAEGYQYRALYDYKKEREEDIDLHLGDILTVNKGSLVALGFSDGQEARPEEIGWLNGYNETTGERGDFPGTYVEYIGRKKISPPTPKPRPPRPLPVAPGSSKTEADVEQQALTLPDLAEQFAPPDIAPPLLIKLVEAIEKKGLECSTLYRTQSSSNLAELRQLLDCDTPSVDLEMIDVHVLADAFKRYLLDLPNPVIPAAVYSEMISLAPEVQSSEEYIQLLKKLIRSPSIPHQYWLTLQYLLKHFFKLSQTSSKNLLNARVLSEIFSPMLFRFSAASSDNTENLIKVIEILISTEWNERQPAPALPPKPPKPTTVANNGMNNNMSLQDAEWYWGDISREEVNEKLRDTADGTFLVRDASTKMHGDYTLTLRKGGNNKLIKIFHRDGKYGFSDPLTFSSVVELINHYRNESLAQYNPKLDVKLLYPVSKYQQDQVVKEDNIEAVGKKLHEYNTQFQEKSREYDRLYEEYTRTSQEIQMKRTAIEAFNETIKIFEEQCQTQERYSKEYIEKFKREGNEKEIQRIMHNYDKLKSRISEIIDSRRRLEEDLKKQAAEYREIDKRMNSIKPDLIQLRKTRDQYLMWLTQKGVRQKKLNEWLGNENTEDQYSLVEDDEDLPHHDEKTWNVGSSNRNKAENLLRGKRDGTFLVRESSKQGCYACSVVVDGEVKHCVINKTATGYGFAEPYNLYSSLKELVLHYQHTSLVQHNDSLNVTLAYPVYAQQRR
PI3-kinase p110-alpha/p85-alpha, sequence (P42336 whole entry): as the sequence (P42336 whole entry, canonical isoform) above

PI3K p110 beta/p85 alpha = PI3K p110 beta/p85 alpha (Homo sapiens, UniProt P42338); experiment: Inhibition of recombinant human PI3K p110beta/p85alpha using phosphatidylinositol 4,5-bisphosphate as substrate preincubated for 15 mins followed by addition of ATP and measured after 30 mins by fluorescence polarisation assay; type: protein-complex assay
PI3K p110 beta/p85 alpha, sequence (P27986 whole entry): as the sequence (P27986 whole entry) above
PI3K p110 beta/p85 alpha, sequence (P42338 whole entry): as the sequence (P42338 whole entry, canonical isoform) above

[7] = molecular target: PI3-kinase p110-delta/p85-alpha (Homo sapiens, UniProt O00329); experiment: Inhibition of recombinant human PI3K p110delta/p85alpha using phosphatidylinositol 4,5-bisphosphate as substrate preincubated for 15 mins followed by addition of ATP and measured after 30 mins by fluorescence polarisation assay; type: protein-complex assay
PI3-kinase p110-delta/p85-alpha, sequence (P27986 whole entry, one chain of several): as the sequence (P27986 whole entry) above

[8] = Distribution coefficient, logD of compound at pH 7.4; type: physicochemical; conditions: octanol/water
[9] = Apparent intrinsic clearance in human liver microsomes; type: ADME, Microsome; conditions: read-out: CLH(app)
[10] = Passive permeability of compound in RRCK cells; type: ADME, cell-based, Canis lupus familiaris, MDCKII-LE; conditions: dog, MDCK; read-out: permeability
[11] = Kinetic solubility of compound; type: physicochemical; conditions: read-out: Kinetic_solubility
Homo sapiens [12] = organism: Homo sapiens; experiment: Selectivity index, ratio of Ki for recombinant human PI3K p110beta/p85alpha to Ki for recombinant human full-length PI3K p110alpha/p85alpha (322 to 600) using phosphatidylinositol 4,5-bisphosphate as substrate
Homo sapiens [13] = organism: Homo sapiens; experiment: Selectivity index, ratio of Ki for recombinant human PI3K p110delta/p85alpha to Ki for recombinant human full-length PI3K p110alpha/p85alpha (322 to 600) using phosphatidylinositol 4,5-bisphosphate as substrate
Homo sapiens [14] = organism: Homo sapiens; experiment: Selectivity index, ratio of IC50 for mTOR in human MCF7 cells to Ki for recombinant human full-length PI3K p110alpha/p85alpha; type: cell-based
Homo sapiens [15] = organism: Homo sapiens; experiment: Selectivity index, ratio of IC50 for recombinant human N-terminal Myr signal and C-terminal Flag-tagged PI3K p110beta to Ki for recombinant human full-length PI3K p110alpha/p85alpha
Homo sapiens [16] = organism: Homo sapiens; experiment: Selectivity index, ratio of IC50 for recombinant human N-terminal Myr signal and C-terminal Flag-tagged PI3K p110delta to Ki for recombinant human full-length PI3K p110alpha/p85alpha
T47D = experiment: Antiproliferation activity against human T47D cells assessed as reduction in cell viability incubated for 7 days by Cell-titer Glo reagent based assay; type: functional; conditions: 168 h
[17] = Inhibition of PI3K p110alpha H1047R mutant in human T47D cells assessed as reduction in phosphorylation of Akt at T308 residue incubated for 2 hrs by ELISA; type: cell-based
[18] = Inhibition of PI3K p110alpha […] mutant in human MCF7 cells assessed as reduction in phosphorylation of Akt at T308 residue incubated for 2 hrs by ELISA; type: cell-based; conditions: MCF7, 2 h
MCF7 = experiment: Antiproliferation activity against human MCF7 cells assessed as reduction in cell viability incubated for 7 days by Cell-titer Glo reagent based assay; type: functional; conditions: MCF7, 168 h
[19] = molecular target: Serine/threonine-protein kinase mTOR (Homo sapiens, UniProt P42345); experiment: Inhibition of mTOR in TSC1 null human MCF7 cells assessed as decrease in p70S6K phosphorylation at Thr389 residue incubated for 2 hrs by ELISA; type: cell-based
[20] = Oral bioavailability in Wistar Han rat at 10 mg/kg; type: ADME, organism-based; conditions: in vivo
[21] = Tmax in Wistar Han rat at 10 mg/kg, po; type: ADME, organism-based; conditions: in vivo
[22] = Cmax in Wistar Han rat at 10 mg/kg, po; type: ADME, organism-based; set-up: route oral, dose 10 mg/kg; conditions: in vivo
[23] = AUC (0 to t) in Wistar Han rat at 10 mg/kg, po; type: ADME, organism-based; set-up: dose 10 mg/kg; conditions: in vivo
[24] = AUC (0 to t) in Wistar Han rat at 2 mg/kg, iv; type: ADME, organism-based; set-up: dose 2 mg/kg; conditions: in vivo
[25] = Half life in Wistar Han rat at 2 mg/kg, iv; type: ADME, organism-based; conditions: in vivo
[26] = Volume of distribution at steady state in Wistar Han rat at 2 mg/kg, iv; type: ADME, organism-based; conditions: in vivo, read-out: Vdss
[27] = Plasma clearance in Wistar Han rat at 2 mg/kg, iv; type: ADME, organism-based
[28] = Kinetic solubility of compound at pH 7.4 after 24 hrs by LC/MS/MS analysis; type: physicochemical; conditions: buffer, read-out: Kinetic_solubility
[29] = Thermodynamic solubility of compound at pH 7.4; type: physicochemical; conditions: buffer, read-out: Therm_solubility

| IC50 [3] [nM] | IC50 [4] [nM] | IC50 [5] [nM] | Ki [6] [nM] | Ki (PI3K p110 beta/p85 alpha) [nM] | Ki [7] [nM] | logD [8] | microsomal CLint [9] [µL/min/mg] | Papp [10] [×10⁻⁶ cm/s] | solubility kinetic [11] [µM] | Structure (SMILES) | Ratio IC50 (Rat1 [1]) | Ratio IC50 (Rat1 [2]) | also measured |
| --- | --- | --- | --- | --- | --- | --- | --- | --- | --- | --- | --- | --- | --- |
| 92 | 640 | 6.8 | < 0.018 | 25 | 0.46 | 3.7 | 160 | 21 | 97 (≈ 46.8 µg/mL) | CC(C)(C)OC(=O)N1CC[C@](C)(N2CCc3c(-c4cnc(N)nc4)nc(N4CCOCC4)nc32)C1 | 14 | 94 | Ratio Ki (Homo sapiens [12]): > 1390; Ratio Ki (Homo sapiens [13]): > 26 |
| 160 | 360 | 18 | < 0.018 | 2 | < 0.28 | 1.9 | < 18 | 13 | 2.5 (≈ 1.25 µg/mL) | Nc1ncc(-c2nc(N3CCOCC3)nc(N[C@@]3(CO)CCN(C(=O)OCC(F)F)C3)c2F)cn1 | 9 | 20 | Selectivity Index (Homo sapiens [14]): 83; Selectivity Index (Homo sapiens [15]): 20; Selectivity Index (Homo sapiens [16]): 9; IC50 (T47D): 32 nM; IC50 [17]: 8.7 nM; IC50 [18]: 7.8 nM; IC50 (MCF7): 62 nM; IC50 [19]: 1500 nM; bioavailability [20]: 25%; Tmax [21]: 1 h; Cmax [22]: 330 ng/mL; AUC(0-t) [23]: 1400 ng·h/mL; AUC(0-t) [24]: 1100 ng·h/mL; half-life [25]: 3.6 h; Vd [26]: 3 L/kg; clearance [27]: 30 mL/min/kg; solubility kinetic at 24 h [28]: 1.3 µg/mL (≈ 2.61 µM); solubility thermodynamic [29]: 6.2 µg/mL (≈ 12.4 µM) |
